Patent publication US7037533B2 (priority 2001, dated 2006)
Read-outs that look alike come from different tables or passages of the source.

Tests used:
[1] = tested on: breast cancer, leukemia, uterus cancer, stomach cancer and colon cancer cell strain; settings: cited from earlier work
CYP 1A2 [2] = biological target: T1, CYP 1A2 (Rattus norvegicus, UniProt P04799)
T1 sequence (P04799 1-513): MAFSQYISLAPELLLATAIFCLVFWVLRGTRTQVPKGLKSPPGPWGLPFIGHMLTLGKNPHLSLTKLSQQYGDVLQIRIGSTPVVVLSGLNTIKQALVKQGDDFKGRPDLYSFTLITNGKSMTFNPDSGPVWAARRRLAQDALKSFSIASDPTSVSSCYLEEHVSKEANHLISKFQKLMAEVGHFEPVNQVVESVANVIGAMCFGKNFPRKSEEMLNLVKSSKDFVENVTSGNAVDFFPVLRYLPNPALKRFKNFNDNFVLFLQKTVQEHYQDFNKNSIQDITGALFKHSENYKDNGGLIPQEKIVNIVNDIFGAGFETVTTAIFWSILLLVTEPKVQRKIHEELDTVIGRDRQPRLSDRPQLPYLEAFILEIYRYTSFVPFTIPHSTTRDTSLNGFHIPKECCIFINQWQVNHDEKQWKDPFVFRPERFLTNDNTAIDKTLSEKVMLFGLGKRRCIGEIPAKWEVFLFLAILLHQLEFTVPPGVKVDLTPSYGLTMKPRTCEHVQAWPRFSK
Protocol: (§1) The present test measured the inhibition effect of CYP relating to NNK activation to various test materials after inducing CYP of a liver from a rat(Sprague-Dawley rat) by Aroclor 1254(Sigma, USA) and taking out the liver.
(§2) Aroclor 1254 was injected into the abdomen of a 7-week old male rat (Sprague-Dawley rat) in a capacity of 500 mg/kg. After 5 days, the liver was taken out in a sterile state and homogenized using 0.15M of KCl solution at 4° C. A supernatant was separated by a centrifugal separation for 10 minutes at 9000 g from the homogenate and used in the test. Activity of CYP was measured by using pentoxyresorufin(Sigma USA) which is a substrate of CYP 2B1/2/4, ethoxyresorufin(Sigma USA) which is a substrate of CYP 1A1 and methoxyresorufin(Sigma USA) which is a substrate of CYP 1A2. […] The inhibition effect for CYP activity was compared using the above reaction specimen (inhibition material), the supernatant taken out from the liver and specific substrate of each CYP. […] Each specimen has a concentration of 0.1, 0.5, 1.0 and 2.0 mg/ml and an amount of protein taken out from the liver is set to 500 μg/ml. Each substrate had 2.5 μM of stock solution and finally became 25 nM after adding 10 μl. […] The enzyme activity was measured by using a RF-5301 PC spectrofluoro photometer (SHIMADZU, Japan) from the supernatant (excitation at 522 nm and emission at 586 nm). […]

[3] = inhibition of nitrosomorpholine generation from morpholine and NaNO2 in vitro; settings: 20 mg/ml
Protocol: EGCG, quercetin, catechin, vitamin C and powdered green tea were used as a control group. Each specimen was used in a concentration of 2.5, 5, 10, 15, 20 mg/ml. 200 mM of sodium nitrate not containing morpholine was used as a negative control. The specimen not containing the nitrosating agent NaNO2 was used as a blank in each reaction.
Each specimen was added into 15 ml of corning tubes according to concentration and marked with the blank, test, negative control. 1 ml of glacial acetic acid was added into each tube and 100 μl of 2 M NaNO2 was added into each tube except blank and distilled water was added to make total volume of 2 ml. After reacting for 10 minutes at 37° C., 176 μl of morpholine was added to make 2 M and the reaction was further carried out for 30 minutes at 37° C. The reaction was stopped by adding 3.8 ml of 5 N NaOH to set pH 10 to 12. According to DBA method, the specimens were measured and compared with blank group (not added NaNO2) and negative control group (not added morpholine and added 200 mM NaNO2).
Generation rate of nitrosomorpholine (NMOR %) is measured as below calculating formula 1. NMOR %=[(t0−blank)−(t30−blank)]/(t0−blank) (Calculating formula 1) • Blank; a specimen not containing nitrosating agent NaNO2 • t0; a specimen containing 200 mM of NaNO2 without morpholine • t30; a specimen normally reacted in the generation of nitrosomorpholine.

purified CYP 1A2 = biological target: T2, purified CYP 1A2 (Homo sapiens, UniProt P05177); assay: purified RECO System CYP 1A2 enzyme activity with methoxyresorufin
T2 sequence (P05177 2-516 limits assumed): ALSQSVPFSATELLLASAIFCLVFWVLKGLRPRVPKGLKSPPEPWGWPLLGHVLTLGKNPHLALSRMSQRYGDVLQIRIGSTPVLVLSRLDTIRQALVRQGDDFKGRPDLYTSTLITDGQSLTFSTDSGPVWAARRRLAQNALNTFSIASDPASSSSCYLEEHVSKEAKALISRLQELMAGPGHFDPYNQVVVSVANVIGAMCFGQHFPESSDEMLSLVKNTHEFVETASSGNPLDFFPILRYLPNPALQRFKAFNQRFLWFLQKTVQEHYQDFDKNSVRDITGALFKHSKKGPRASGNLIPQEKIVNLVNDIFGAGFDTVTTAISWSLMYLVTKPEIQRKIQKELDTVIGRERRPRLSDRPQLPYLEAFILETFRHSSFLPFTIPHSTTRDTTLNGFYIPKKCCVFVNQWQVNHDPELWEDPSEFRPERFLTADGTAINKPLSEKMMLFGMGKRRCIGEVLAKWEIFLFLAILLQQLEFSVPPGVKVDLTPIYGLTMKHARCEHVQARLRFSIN
Protocol: A composition of enzyme mixture comprises 0.5 uM CYP1A2, 0.2 μM NADPH P450 reductase, 0.5 μg/uL CHAPS, 0.1 μg/uL liposomes (dilauroyl phosphotidylcholine, dileoyl phosphotidylcholine, dilauroyl phosphotidylcholine (1:1:1)), 3 mM reductive glutathion, and 50 mM HEPES/KOH (pH 7.4). A buffer solution is 1 M potassium/sodium phosphate. 768 μl of tertiary distilled water, 126.7 μl of CYP 1A2 buffer solution, and 5.3 μl of 1 mM methoxyresorufin were added sequentially to make […] of solution and heated at 37° C. 5 μl of enzyme activation inhibiting material was added into 85 μl of buffer solution and substrate mixture to make final concentration 0.1, 0.5, 1.0, and 2.0 mg/ml respectively. The reaction started at 37° C. while adding 5 μl of CYP 1A2 enzyme mixture and 5 μl of 50 mM NADPH. The reaction was maintained for 20 minutes and stopped by adding 1 ml of methanol. The enzyme activity was measured by using a RF-5301 PC spectrofluoro photometer (SHIMADZU, Japan).

[4] = DPPH free radical scavenging
Protocol: 1.5 ml of DPPH was placed into a cuvette and 1.5 ml of antioxidant solution was added and evenly mixed. Right after mixing, the change of absorbance (523 nm) according to time was measured and the decomposition rate was calculated. Decomposition rate=(initial absorbance of DPPH−absorbance after adding each specimen according to time)/initial absorbance of DPPH×100 (Calculating formula 3)

[5] = cited from earlier work
CYP 1A2 [6] = biological target: T1, CYP 1A2; assay: MROD (methoxyresorufin dealkylase) activity in Aroclor 1254-induced rat liver supernatant
Protocol: as §1, §2

Molecule: O=c1c(O)c(-c2ccc(O)c(O)c2)oc2cc(O)cc(O)c12 [quercetin]
- concentration of quercetin at which propagation of cancer cell strain was inhibited [1]: 10 µM
- order of inhibition of activity of CYP 1A2 (CYP 1A2 [2]): quercetin>>the functional agent>>catechin≈powdered green tea
- inhibition of generating nitromorpholine from morpholine [3]: ~75%
- order of inhibition of activity of purified CYP 1A2 (purified CYP 1A2): EGCG>>the functional agent>>quercetin>>powdered green tea>>catechin

Molecule: epigallocatechin-3-gallate [EGCG]
- DPPH radical scavenging effect, comparison [4]: two times higher than that of the functional agent and catechin
- order of inhibition of activity of purified CYP 1A2 (purified CYP 1A2; purified enzyme): EGCG>>the functional agent>>quercetin>>powdered green tea>>catechin

Molecule: CN1CCCC1c1cccnc1 (stereo not drawn) [nicotine]
- share of nicotine conversed into cotinine ([5]; in vivo): 70-80%
- share of nicotine conversed into nicotine-1-N-oxide by FMO ([5]; in vivo): 4%
- share of nicotine excreted as urine through metabolism ([5]; in vivo): 80-90%
- half period ([5]; nicotine): 30 min

Molecule: O=C(O)CCC(=O)c1cccnc1 [ketoic acid]
- share of ketoic acid metabolized to hydroxy acid and excreted as urine ([5]; in vivo): 85%

Molecule: CN1C(=O)CC[C@H]1c1cccnc1 [cotinine]
- half period ([5]; cotinine): 1440 min

Molecule: catechin
- order of inhibition of activity of CYP 1A2 (CYP 1A2 [6]): quercetin>>the functional agent>>catechin≈powdered green tea
- inhibition of generating nitromorpholine from morpholine [3]: ~75%
- order of inhibition of activity of purified CYP 1A2 (purified CYP 1A2; purified enzyme): EGCG>>the functional agent>>quercetin>>powdered green tea>>catechin
